In brackets after ≈: the same amount, converted by molar mass.
Assays:
[1] = tested on: Staphylococcus aureus S13E; assay type: cell-based
Method: (§1) The MIC's were determined using a standard broth micro-dilution assay.

[2] = tested on: Entercoccus faecium 180-1; test: broth micro-dilution MIC; assay type: cell-based
Method: as §1

Entercoccus faecium 276 = test: broth micro-dilution MIC; assay type: cell-based
Method: as §1

[3] = tested on: Staphylococcus aureus 446; test: broth micro-dilution MIC; assay type: cell-based
Method: as §1

[4] = tested on: Staphylococcus aureus 447; test: broth micro-dilution MIC; assay type: cell-based
Method: as §1

[5] = tested on: Staphylococcus aureus 489; test: broth micro-dilution MIC; assay type: cell-based
Method: as §1

[6] = tested on: Staphylococcus aureus 491; test: broth micro-dilution MIC; assay type: cell-based
Method: as §1

[7] = tested on: Staphylococcus aureus SA1199A; test: broth micro-dilution MIC; assay type: cell-based
Method: as §1

[8] = tested on: Staphylococcus aureus X400; test: broth micro-dilution MIC; assay type: cell-based
Method: as §1

[9] = tested on: Staphylococcus aureus X778; test: broth micro-dilution MIC; assay type: cell-based
Method: as §1

Entercoccus faecium 180 = test: broth micro-dilution MIC; assay type: cell-based; conditions: Entercoccus faecium 180
Method: (§2) The formula I compounds have in vitro and in vivo activity against Gram-positive pathogenic bacteria. The MIC's were determined using a standard broth micro-dilution assay.

Entercoccus faecium 2041 = test: broth micro-dilution MIC; assay type: cell-based; conditions: Entercoccus faecium 2041
Method: as §2

[10] = tested on: Enterococcus gallinarum 245; test: broth micro-dilution MIC; assay type: cell-based; conditions: Enterococcus gallinarum 245
Method: as §2

[11] = tested on: Staphylococcus epidermidis 270; test: broth micro-dilution MIC; assay type: cell-based
Method: as §2

[12] = tested on: Staphylococcus haemolyticus 105; test: broth micro-dilution MIC; assay type: cell-based
Method: as §2

[13] = tested on: Staphylococcus haemolyticus 415; test: broth micro-dilution MIC; assay type: cell-based
Method: as §2

[14] = tested on: vancomycin-resistant enterococci; test: broth micro-dilution, mean geometric MIC; assay type: cell-based, Enterococcus faecium and Enterococcus faecalis; conditions: enterococci, 24-hour incubation
[15] = tested on: vancomycin-susceptible enterococci; test: broth micro-dilution, mean geometric MIC; assay type: cell-based, Enterococcus faecium and Enterococcus faecalis; conditions: enterococci, 24-hour incubation
[16] = tested on: Staphylococcus aureus SA1199B; assay type: cell-based
Method: as §1

[17] = tested on: Streptococcus pyogenes C203; test: broth micro-dilution MIC; assay type: cell-based
Method: as §1

[18] = tested on: Streptococcus pneumoniae P1; test: broth micro-dilution MIC; assay type: cell-based
Method: as §2

Row | Compound | MIC [1] [µg/mL] | MIC [2] [µg/mL] | MIC (Entercoccus faecium 276) [µg/mL] | MIC [3] [µg/mL] | MIC [4] [µg/mL] | MIC [5] [µg/mL] | MIC [6] [µg/mL] | MIC [7] [µg/mL] | MIC [8] [µg/mL] | MIC [9] [µg/mL] | MIC (Entercoccus faecium 180) [µg/mL] | MIC (Entercoccus faecium 2041) [µg/mL] | MIC [10] [µg/mL] | MIC [11] [µg/mL] | MIC [12] [µg/mL] | MIC [13] [µg/mL] | mean geometric MIC, Vancomycin Resistant Strains [14] [µg/mL] | mean geometric MIC, Vancomycin Sensitive Strains [15] [µg/mL] | MIC [16] [µg/mL] | MIC [18] [µg/mL] | also measured
1 | CNC(CC(C)C)C(=O)NC1C(=O)NC(CC(N)=O)C(=O)NC2C(=O)NC3C(=O)NC(C(=O)NC(C(=O)O)c4cc(O)cc(O)c4-c4cc3ccc4O)C(OC3CC(C)(N)C(O)C(C)O3)c3ccc(c(Cl)c3)Oc3cc2cc(c3OC2OC(CO)C(O)C(O)C2OC2CC(C)(NCc3cnc4ccccc4c3)C(O)C(C)O2)Oc2ccc(cc2Cl)C1O (stereo not shown) [Compound 28] | ≤ 0.06 | ≤ 0.06 | ≤ 0.06 | 0.25 (≈ 0.144 µM) | 1 (≈ 0.577 µM) | ≤ 0.06 | 0.25 (≈ 0.144 µM) | ≤ 0.06 | ≤ 0.06 | ≤ 0.06 | 1 (≈ 0.577 µM) | 0.25 (≈ 0.144 µM) | 0.25 (≈ 0.144 µM) | 1 (≈ 0.577 µM) | 4 (≈ 2.31 µM) | 8 (≈ 4.61 µM) | 4.7 | 0.71 | – | – | –
2 | CNC(CC(C)C)C(=O)NC1C(=O)NC(CC(N)=O)C(=O)NC2C(=O)NC3C(=O)NC(C(=O)NC(C(=O)O)c4cc(O)cc(O)c4-c4cc3ccc4O)C(OC3CC(C)(N)C(O)C(C)O3)c3ccc(c(Cl)c3)Oc3cc2cc(c3OC2OC(CO)C(O)C(O)C2OC2CC(C)(NCc3cncc(-c4ccccc4)c3)C(O)C(C)O2)Oc2ccc(cc2Cl)C1O (stereo not shown) [Compound 101] | – | ≤ 0.06 | 0.125 (≈ 0.071 µM) | 0.5 (≈ 0.284 µM) | 1 (≈ 0.568 µM) | ≤ 0.06 | 0.5 (≈ 0.284 µM) | 0.5 (≈ 0.284 µM) | ≤ 0.06 | – | – | ≤ 0.06 | 8 (≈ 4.55 µM) | 0.5 (≈ 0.284 µM) | 1 (≈ 0.568 µM) | 8 (≈ 4.55 µM) | 4.0 | – | 1 (≈ 0.568 µM) | ≤ 0.06 | MIC [17]: ≤ 0.06 µg/mL
3 | CC#CCCCCCCCCCCOc1ccc(CNC2(C)CC(OC3C(Oc4c5cc6cc4Oc4ccc(cc4Cl)C(OC4CC(C)(N)C(O)C(C)O4)C4NC(=O)C(NC(=O)C6NC(=O)C(CC(N)=O)NC(=O)C(NC(=O)C(CC(C)C)NC)C(O)c6ccc(c(Cl)c6)O5)c5ccc(O)c(c5)-c5c(O)cc(O)cc5C(C(=O)O)NC4=O)OC(CO)C(O)C3O)OC(C)C2O)cc1 (stereo not shown) [Compound 233] | 8 (≈ 4.26 µM) | 2 (≈ 1.07 µM) | 8 (≈ 4.26 µM) | 4 (≈ 2.13 µM) | – | 4 (≈ 2.13 µM) | 8 (≈ 4.26 µM) | 4 (≈ 2.13 µM) | 8 (≈ 4.26 µM) | 8 (≈ 4.26 µM) | 2 (≈ 1.07 µM) | 2 (≈ 1.07 µM) | – | 8 (≈ 4.26 µM) | – | – | 1.7 | 1.7 | – | 0.5 (≈ 0.266 µM) | –
4 | CNC(CC(C)C)C(=O)NC1C(=O)NC(CC(N)=O)C(=O)NC2C(=O)NC3C(=O)NC(C(=O)NC(C(=O)O)c4cc(O)cc(O)c4-c4cc3ccc4O)C(OC3CC(C)(N)C(O)C(C)O3)c3ccc(c(Cl)c3)Oc3cc2cc(c3OC2OC(CO)C(O)C(O)C2OC2CC(C)(NCc3cccc(OC(=O)C4CCCCC4)c3)C(O)C(C)O2)Oc2ccc(cc2Cl)C1O (stereo not shown) [Compound 165] | ≤ 0.06 | ≤ 0.06 | 0.5 (≈ 0.276 µM) | 1 (≈ 0.553 µM) | 0.5 (≈ 0.276 µM) | 2 (≈ 1.11 µM) | 0.5 (≈ 0.276 µM) | ≤ 0.06 | 0.5 (≈ 0.276 µM) | – | 0.5 (≈ 0.276 µM) | ≤ 0.06 | 4 (≈ 2.21 µM) | 1 (≈ 0.553 µM) | 4 (≈ 2.21 µM) | 4 (≈ 2.21 µM) | 4.0 | 0.062 | 1 (≈ 0.553 µM) | ≤ 0.06 | MIC [17]: ≤ 0.06 µg/mL
